From patent publication US12649733B2, “3,6-diamino-pyridazin-3-yl derivatives, pharmaceutical compositions containing them and their uses as pro-apoptotic agents” (LES LABORATOIRES SERVIER, priority 2019, dated 2026)

How the values were obtained:
[1] = target: T1, BCLXL (Homo sapiens, UniProt Q07817, V10N/V9A); assay: Fluorescence polarisation assay (PUMA-based probe displacement); type: binding; also: 20 nM protein, 10 nM fluorescent probe
[2] = target: T1, BCLXL; assay: AlphaLISA assay (BIM peptide displacement); type: binding; conditions: 20 pM protein, 1 nM peptide
Procedure: AlphaLISA assay measures an increase in alpha signal upon binding biotinylated GST(1-218)-(FACTOR_XA)-hs ? (2-209)(SEQ ID:02—GST UniProtKB® primary accession number P08515 and BCLXL UniProtKB® primary accession number Q07817-1) coupled to a Streptavidin labeled Alpha donor bead to N-terminally labeled peptide derived from BIM (Fluorescein-betaAla-Ahx-SEQID:05, wherein SEQ ID:05 is […]) coupled to an Anti-FTIC AlphaLISA acceptor bead.
GST(1-218)(FACTOR_XA)-hs ? (2-209) was biotinylated in 50 mM phosphate buffer using a 20 fold excess of EZ Link NHS-LC-Biotin (thermoFisher catalogue number 21336) overnight at 4° C.
The addition of a compound which binds competitively to the same site as the peptide will result in an decrease in the Alpha signal of the available donor bead-protein-peptide-acceptor bead complex due to displacement of the peptide.
An 11-point serial dilution of each compound was prepared in DMSO, the final buffer conditions were 10 mM 4-(2-hydroxyethyl)-1-piperazineethanesulfonic acid [HEPES], 150 mM NaCl, 0.05% Tween 20, pH 7.4 and 4% DMSO. The final protein concentration in the assay was 20 pM with the peptide present at 1 nM). Alpha beads were used at a final concentration of 5 ug/mL. The experiments were incubated for overnight at 23° C. after acceptor bead addition. Finally the donor bead is added and incubated for 2 hours at 23° C. before Alpha signal measured on a Biotek Synergy2 plate reader (Excitation 680 nm, emission 615 nm).

[3] = system: H146 cells; assay: H146 cell viability, MTT assay; type: cell-based; conditions: Homo sapiens, NCI-H146, 48 h, 48 h exposure
Method in brief: (§1)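 Cells grown in RPMI 1640 with 10% heat-inactivated FBS at 37° C, 5% CO2, exposed 48 h to nine 3.16-fold serial compound dilutions in triplicate. MTT added for 4 h, SDS/HCl solubilisation overnight, absorbance at 540 nm; IC50 by four-parameter fit.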

[4] = system: MOLT-4 cells; assay: MOLT-4 cell viability, MTT assay; type: cell-based; conditions: Homo sapiens, MOLT-4, 48 h, 48 h exposure
Method in brief: as §1

T1 sequence (Q07817 with tags, fused parts or gaps V9A/V10N): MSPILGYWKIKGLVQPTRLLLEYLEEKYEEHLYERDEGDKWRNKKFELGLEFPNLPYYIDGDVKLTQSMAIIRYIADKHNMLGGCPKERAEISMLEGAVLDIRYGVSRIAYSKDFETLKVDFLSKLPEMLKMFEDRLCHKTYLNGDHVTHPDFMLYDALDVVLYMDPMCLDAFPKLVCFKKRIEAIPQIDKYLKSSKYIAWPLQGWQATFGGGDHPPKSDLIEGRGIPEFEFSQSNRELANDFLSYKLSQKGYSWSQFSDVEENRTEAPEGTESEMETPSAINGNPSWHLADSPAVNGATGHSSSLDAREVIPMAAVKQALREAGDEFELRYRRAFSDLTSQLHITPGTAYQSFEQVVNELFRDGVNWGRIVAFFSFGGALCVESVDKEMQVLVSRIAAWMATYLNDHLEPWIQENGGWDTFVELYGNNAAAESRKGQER

| SMILES | Ki [1] | IC50 [2] | IC50 [3] | IC50 [4] |
| --- | --- | --- | --- | --- |
| Cc1c(Nc2nc(C(=O)O)c(CCCOc3ccc(C#CCN(C)C)cc3F)s2)nnc(Nc2nc3ccccc3s2)c1C [Example 3, 2-({6-[(1,3-Benzothiazol-2-yl)amino]-4,5-dimethylpyridazin-3-yl}amine)-5-(3-{4-[3-(dimethylamino)prop-1-yn-1-yl]-2-fluorophenoxy}propyl)-1,3-thiazole-4-carboxylic acid] | 1.9 nM | 0.096 nM | 42 nM | 90 nM |
| COCCCN(c1cc(C)c(Nc2nc3ccccc3s2)nn1)c1nc(C(=O)O)c(CCCOc2ccc(C#CCN(C)C)cc2F)s1 [Example 54, 2-({6-[(1,3-Benzothiazol-2-yl)amino]-5-methylpyridazin-3-yl}(3-methoxypropyl)amino)-5-(3-{4-[3-(dimethylamino)prop-1-yn-1-yl]-2-fluorophenoxy}propyl)-1,3-thiazole-4-carboxylic acid] | 1.4 nM | 0.025 nM | 35.2 nM | 5.07 nM |
| Cc1cc(N(C)c2nc(C(=O)O)c(CCCOc3ccccc3F)s2)nnc1Nc1nc2ccccc2s1 [Example 59, 2-({6-[(1,3-Benzothiazol-2-yl)amino]-5-methylpyridazin-3-yl}(methyl)amino)-5-[3-(2-fluorophenoxy)propyl]-1,3-thiazole-4-carboxylic acid] | < 1 nM | 0.14 nM | 271 nM | 76.1 nM |
| COCCCc1sc(N(C)c2cc(C)c(Nc3nc4ccccc4s3)nn2)nc1C(=O)O [Example 60, 2-({6-[(1,3-Benzothiazol-2-yl)amino]-5-methylpyridazin-3-yl}(methyl)amino)-5-(3-methoxypropyl)-1,3-thiazole-4-carboxylic acid] | 1.5 nM | 0.96 nM | 5800 nM | 2740 nM |
| Cc1cc(N(C)c2nc(C(=O)O)c(CCCOc3ccccc3)s2)nnc1Nc1nc2ccccc2s1 [Example 63, 2-({6-[(1,3-Benzothiazol-2-yl)amino]-5-methylpyridazin-3-yl}(methyl)amino)-5-(3-phenoxypropyl)-1,3-thiazole-4-carboxylic acid] | < 1 nM | 0.1 nM | 205 nM | 85.3 nM |
| COCCCN(c1cc(C)c(Nc2nc3ccccc3s2)nn1)c1nc(C(=O)O)c(CCCOc2ccccc2)s1 [Example 65, 2-{[6-[(1,3-Benzothiazol-2-yl)amino]-5-methylpyridazin-3-yl}(3-methoxypropyl)amino)-5-(3-phenoxypropyl)-1,3-thiazole-4-carboxylic acid] | < 1 nM | 1 nM | 865 nM | 236 nM |
| Cc1cc(N(CCC(O)CO)c2nc(C(=O)O)cs2)nnc1Nc1nc2ccccc2s1 (stereo not shown) [Example 85, 2-[[6-(1,3-Benzothiazol-2-ylamino)-5-methyl-pyridazin-3-yl]-(3,4-dihydroxybutyl)amino]thiazole-4-carboxylic acid] | < 1 nM | 12 nM | > 15000 nM | > 15000 nM |
| Cc1cc(N(C)c2nc(C(=O)O)c(C3CCN(C(=O)c4ccccc4)CC3)s2)nnc1Nc1nc2ccccc2s1 [Example 89, 5-(1-Benzoylpiperidin-4-yl)-2-({6-[(1,3-benzothiazol-2-yl)amino]-5-methylpyridazin-3-yl}(methyl)amino)-1,3-thiazole-4-carboxylic acid] | 160 nM | 150 nM | > 15000 nM | 13100 nM |
| Cc1cc(N(C)c2ccc(-c3cnn(CC45CC6CC(CC(C6)C4)C5)c3C)c(C(=O)O)n2)nnc1Nc1nc2ccccc2s1 [Example 90, 3-{1-[(Adamantan-1-yl)methyl]-5-methyl-1H-pyrazol-4-yl}-6-({6-[(1,3-benzothiazol-2-yl)amino]-5-methylpyridazin-3-yl}(methyl)amino)pyridine-2-carboxylic acid] | < 1 nM | 0.023 nM | 201 nM | 23.3 nM |
| Cc1cc(N(C)c2nc(C(=O)O)c(C3CCN(c4ccccc4)CC3)s2)nnc1Nc1nc2ccccc2s1 [Example 91, 2-({6-[(1,3-Benzothiazol-2-yl)amino]-5-methylpyridazin-3-yl}(methyl)amino)-5-(1-phenylpiperidin-4-yl)-1,3-thiazole-4-carboxylic acid] | 6.4 nM | 5.3 nM | 5390 nM | 1130 nM |
| Cc1cc(N(C)c2nc(C(=O)O)c(C3CCN(S(=O)(=O)c4ccccc4)CC3)s2)nnc1Nc1nc2ccccc2s1 [Example 92, 5-[1-(Benzenesulfonyl)piperidin-4-yl]-2-({6-[(1,3-benzothiazol-2-yl)amino]-5-methylpyridazin-3-yl}(methyl)amino)-1,3-thiazole-4-carboxylic acid] | 68 nM | 46 nM | > 15000 nM | > 15000 nM |
| COCC(O)CCN(c1cc(C)c(Nc2nc3ccccc3s2)nn1)c1nc(C(=O)O)cs1 (stereo not shown) [Example 93, 2-[[6-(1,3-Benzothiazol-2-ylamino)-5-methyl-pyridazin-3-yl]-(3-hydroxy-4-methoxy-butyl)amino]thiazole-4-carboxylic acid] | 6.8 nM | 6.4 nM | > 15000 nM | 9400 nM |
| Cc1cc(N(C)c2nc(C(=O)O)c(C3CCN(S(C)(=O)=O)CC3)s2)nnc1Nc1nc2ccccc2s1 [Example 94, 2-({6-[(1,3-Benzothiazol-2-yl)amino]-5-methylpyridazin-3-yl}(methyl)amino)-5-(1-methanesulfonylpiperidin-4-yl)-1,3-thiazole-4-carboxylic acid] | 67 nM | 51 nM | 4070 nM | ≥ 10000 nM |
| Cc1cc(N(C)c2nc(C(=O)O)c(C3CNC3)s2)nnc1Nc1nc2ccccc2s1 [Example 139, 5-(Azetidin-3-yl)-2-({6-[(1,3-benzothiazol-2-yl)amino]-5-methylpyridazin-3-yl}(methyl)amino)-1,3-thiazole-4-carboxylic acid] | 640 nM | 270 nM |  |  |
| Cc1cc(N(CCCC(O)CN(C)CCN(C)C)c2nc(C(=O)O)cs2)nnc1Nc1nc2ccccc2s1 (stereo not shown) [Example 142, 2-[[6-(1,3-Benzothiazol-2-ylamino)-5-methyl-pyridazin-3-yl]-[5-[2-(dimethylamino)ethyl-methyl-amino]-4-hydroxy-pentyl]amino]thiazole-4-carboxylic acid] | 50 nM | 10 nM |  |  |
| Cc1cc(N(C)c2nc(C(=O)O)c(C3CN(Cc4ccccc4)C3)s2)nnc1Nc1nc2ccccc2s1 [Example 145, 2-({6-[(1,3-Benzothiazol-2-yl)amino]-5-methylpyridazin-3-yl}(methyl)amino)-5-(1-benzylazetidin-3-yl)-1,3-thiazole-4-carboxylic acid] | 180 nM | 190 nM |  |  |
| Cc1cc(N(CCCCO)c2nc(C(=O)O)c(CCCOc3ccc(C#CCN(C)CCCS(=O)(=O)O)cc3F)s2)nnc1Nc1nc2ccccc2s1 [Example 151, 2-[[6-(1,3-Benzothiazol-2-ylamino)-5-methyl-pyridazin-3-yl]-(4-hydroxybutyl)amino]-5-[3-[2-fluoro-4-[3-[methyl(3-sulfopropyl)amino]prop-1-ynyl]phenoxy]propyl]thiazole-4-carboxylic acid] | < 1 nM | 0.005 nM |  | 194 nM |
